Experimental data from patent US8859727B2, “Bioactive FUS1 peptides and nanoparticle-polypeptide complexes” (Board of Regents, The University of Texas System, priority 2005, dated 2014).
“Also recorded” adds a separate entry of the source. Structures can show the parent of a compound that is named as a salt. Where two headings read alike, the source gives them in different places. Where a SMILES comes first, the peptide text is derived from it. Where no end group is shown, it is not given here. The star is where a group is joined. Stearoyl = CCCCCCCCCCCCCCCCCC(=O)*

How the values were obtained:
[1] = system: Rat-1 cells transformed with an activated c-Abl tyrosine kinase; assay: Foci formation in Rat-1 cells transformed by c-Abl; format: cell-based
Text: Rat-1 SH2 cells express GFP as a marker. A fluorescent photo was taken of green fluorescing Rat-1 SH2 cells treated with peptide. A phase contrast photo of the field was produced. […] (Rat-1 SH2+M74) and (Rat-1 SH2+ stearic acid) were imaged.

c-Abl tyrosine kinase = target: T1, c-Abl tyrosine kinase (Abelson murine leukemia virus, UniProt P00521); format: biochemical; settings: for inhibition of Abl tyrosine kinase: commercial / bacterially purified Abl kinase, GST-Crk substrate
T1 construct: truncated commercial (New England Bio-Labs) cAbl tyrosine kinase (45 kD) containing only the SH2 and SH1 domains; purchased New England Bio-Labs; host or cells: bacteria
T1 sequence (P00521 1-398): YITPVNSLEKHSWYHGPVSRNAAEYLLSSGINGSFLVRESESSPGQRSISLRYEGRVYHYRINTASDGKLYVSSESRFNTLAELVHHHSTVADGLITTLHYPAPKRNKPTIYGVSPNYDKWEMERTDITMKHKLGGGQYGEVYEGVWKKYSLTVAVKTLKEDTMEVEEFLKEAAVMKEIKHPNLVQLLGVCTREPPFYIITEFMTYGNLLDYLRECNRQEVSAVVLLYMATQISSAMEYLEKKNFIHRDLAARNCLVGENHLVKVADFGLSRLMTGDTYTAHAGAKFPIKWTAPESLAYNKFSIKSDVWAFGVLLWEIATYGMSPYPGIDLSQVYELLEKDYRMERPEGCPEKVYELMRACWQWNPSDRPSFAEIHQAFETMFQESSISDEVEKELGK
Procedure: A zero peptide control, a DMSO control, a DMSO plus stearic acid control, and 20, 25, 30, 35, 40, 45, 50 and 55:M of peptide were evaluated.
After 30 minutes of incubation at 30 degrees, samples were boiled with 2×SDS sample buffer and run on an 8% SDS PAGE gel. The gel was dried and exposed to a phosphoimager.
GST-Crk phosphorylation was quantified by using a phosphoimager.

[2] = system: normal bronchial epithelial CCD16 cells; assay: Cell growth / cytotoxicity in normal cells, XTT assay; format: cell-based, human; settings: at the IC80 doses to all other NSCLC cells
H1299 cells = assay: Soft agar colony assay; format: cell-based, human
[3] = Toxicity Study of FP-nanoparticle in C3H mice (hematological parameters, hepatic and renal function); format: in vivo; settings: tail vein three times every other day
Procedure: C3H mice were injected with a nanoparticle containing a peptide (either the FUS-1 peptide or a nonspecific peptide), and various toxicological parameters were subsequently analyzed at 1, 2 and 3 weeks after injection. Control mice (“Group IX”) were injected with PBS. The toxicological parameters evaluated included hematological parameters (i.e., red blood cell counts “RBC” and white blood cell counts “WBC”), analysis of hepatic function (i.e., AST, ALT, and total bilirubin analysis) and analysis of renal function (i.e., evaluation of creatinine levels). Either DOTAP:cholesterol nanoparticles or DOPC (neutral liposome) nanoparticles were used. The amount of peptide-containing nanoparticle administered to the C3H mice varied from 2 mg/kg to 5 mg/kg. These studies are summarized below in Table V.

[4] = Rat-1 cells transformed with activated c-Abl
[5] = 2 mg/kg, 1st week after last treatment
[6] = 2 mg/kg, 2nd week after last treatment
[7] = 2 mg/kg, 3rd week after last treatment
[8] = 5 mg/kg, 1st week after last treatment
[9] = 5 mg/kg, 2nd week after last treatment
[10] = 5 mg/kg, 3rd week after last treatment

Stearic acid-KLRRVHKNLIPQGIVKLDHR (Stearoyl-KLRRVHKNLIPQGIVKLDHR) [stearate-Fus1 peptide]
foci formation ([1]; 40 μM): blocked foci formation
foci formation [1, 4]: blocked foci formation
inhibition of Abl tyrosine kinase (c-Abl tyrosine kinase): strongly inhibitory

CCCCCCCCCCCCCCCCCC(=O)N[C@@H](CCCCN)C(=O)N[C@@H](CC(C)C)C(=O)N[C@@H](CCCNC(=N)N)C(=O)N[C@@H](CCCNC(=N)N)C(=O)N[C@H](C(=O)N[C@@H](Cc1c[nH]cn1)C(=O)N[C@@H](CCCCN)C(=O)N[C@@H](CC(N)=O)C(=O)N[C@@H](CC(C)C)C(=O)N[C@H](C(=O)N1CCC[C@H]1C(=O)N[C@@H](CCC(N)=O)C(=O)NCC(=O)N[C@H](C(=O)N[C@H](C(=O)N[C@@H](CCCCN)C(=O)N[C@@H](CC(C)C)C(=O)N[C@@H](CC(=O)O)C(=O)N[C@@H](Cc1c[nH]cn1)C(=O)N1CCC[C@H]1C(=O)N[C@@H](CCCNC(=N)N)C(=O)O)C(C)C)[C@@H](C)CC)[C@@H](C)CC)C(C)C [st-wt-FP] (Stearoyl-KLRRVHKNLIPQGIVKLDHPR-OH)
cytotoxicity in normal cells [2]: No significant cytotoxicity

CCCCCCCCCCCCCCCCCC(=O)O [stearic acid]
foci formation ([1]; 30:M, Rat-1 SH2 cells): no effect
foci formation [1, 4]: no effects
inhibition of Abl tyrosine kinase (c-Abl tyrosine kinase): no inhibitory effects; also recorded: not inhibitory
inhibition of Abl tyrosine kinase (c-Abl tyrosine kinase; listed as Stearate): not inhibitory

Non-stearate FUS1 peptide: Fus1 peptide sequence without the stearic acid moiety (KLRRVHKNLIPQGIVKLDHR)
inhibition of Abl tyrosine kinase activity (c-Abl tyrosine kinase; 0-60 uM, 45 kD Abl tyrosine kinase, GST-Crk phosphorylation): did not inhibit
inhibition of Abl tyrosine kinase (c-Abl tyrosine kinase): did not inhibit
inhibition of Abl tyrosine kinase (c-Abl tyrosine kinase; listed as Fus1 peptide lacking the stearate N-terminal moiety): inactive

Cc1ccc(NC(=O)c2ccc(CN3CCN(C)CC3)cc2)cc1Nc1nccc(-c2cccnc2)n1 [imatinib, imatinib mesylate]
colony-forming ability (H1299 cells; 1-10 uM, dose-dependent, number and size of colonies): strongly inhibited
size of colonies (H1299 cells; 10:M, compared to untreated cells): reduced in size
number of colonies (H1299 cells; 10:M, compared to untreated control): almost complete reduction in the number of colonies

CCCCCCCCCCCCCCCCCC(=O)N[C@@H](CC(=O)O)C(=O)N[C@@H](CC(C)C)C(=O)N[C@H](C(=O)N[C@@H](CCC(=O)O)C(=O)N[C@@H](CCC(=O)O)C(=O)N[C@@H](C)C(=O)N[C@@H](C)C(=O)N[C@@H](CO)C(=O)N[C@@H](CCCNC(=N)N)C(=O)N1CCC[C@H]1C(=O)N[C@H](C(=O)N[C@@H](CC(=O)O)C(=O)N[C@@H](C)C(=O)N[C@H](C(=O)N1CCC[C@H]1C(=O)N[C@@H](CCC(=O)O)C(=O)N[C@@H](CCC(N)=O)C(=O)N[C@H](C(=O)N[C@@H](CCCCN)C(=O)N[C@@H](C)C(=O)N[C@@H](C)C(=O)NCC(=O)N[C@@H](C)C(=O)N[C@@H](Cc1ccc(O)cc1)C(=O)O)C(C)C)C(C)C)C(C)C)[C@@H](C)CC [NSP] (Stearoyl-DLIEEAASRPVDAVPEQVKAAGAY-OH)
ALT [3, 5]: 76 ± 7.87 U/L
AST [3, 5]: 183 ± 6 U/L
Creatinine [3, 5]: 0.6 ± 0 mg/dL
Total Bilirubin [3, 5]: 2.7 ± 0 mg/dL
ALT [3, 6]: 61.67 ± 5.44 U/L
AST [3, 6]: 146 ± 45.31 U/L
Creatinine [3, 6]: 0.5 ± 0.10 mg/dL
RBC [3, 6]: 6.23 ± 0.33 ×10^9
Total Bilirubin [3, 6]: 1.13 ± 1.09 mg/dL
WBC [3, 6]: 1.93 ± 0.58 ×10^9
ALT [3, 7]: 58.67 ± 12.55 U/L
AST [3, 7]: 94.67 ± 28.59 U/L
Creatinine [3, 7]: 0.38 ± 0.09 mg/dL
RBC [3, 7]: 5.7 ± 1.14 ×10^9
Total Bilirubin [3, 7]: 0.6 ± 0.42 mg/dL
WBC [3, 7]: 1.93 ± 0.45 ×10^9
ALT [3, 8]: 91.5 ± 7.5 U/L
AST [3, 8]: 148.5 ± 13.5 U/L
Creatinine [3, 8]: 0.317 ± 0.02 mg/dL
Total Bilirubin [3, 8]: 1.8 ± 1.2 mg/dL
ALT [3, 9]: 54 ± 9.93 U/L
AST [3, 9]: 96.33 ± 20.24 U/L
Creatinine [3, 9]: 0.35 ± 0.02 mg/dL
RBC [3, 9]: 7.47 ± 2.28 ×10^9
Total Bilirubin [3, 9]: 0.7 ± 0.28 mg/dL
WBC [3, 9]: 1.6 ± 0.24 ×10^9
ALT [3, 10]: 50 ± 6.16 U/L
AST [3, 10]: 83.67 ± 23.63 U/L
Creatinine [3, 10]: 0.32 ± 0.04 mg/dL
RBC [3, 10]: 6.67 ± 0.69 ×10^9
Total Bilirubin [3, 10]: 0.43 ± 0.12 mg/dL
WBC [3, 10]: 1.6 ± 0.14 ×10^9
